Among the data in patent US9193721B2, “Fused derivatives as PI3Kδ inhibitors” (Incyte Holdings Corporation, priority 2010, dated 2015) are IC50 values, retold here.

One assay has as its target T1, PI3Kδ (p110δ/p85α) (Homo sapiens, UniProt O00329).
T1 construct: purchased Millipore (Bedford, Mass.)
The experiment in a line: PI3Kδ scintillation proximity assay (assay A). It is filed as biochemical. The conditions noted are these: 20 μM PIP2, 20 μM ATP, 4 nM PI3Kδ, 210 minutes, room temperature. On the procedure:
PI3Kδ Scintillation Proximity Assay
[γ-33P] ATP (10 mCi/mL) was purchased from Perkin-Elmer (Waltham, Mass.). […] PI3Kδ (p110δ/p85α) was purchased from Millipore (Bedford, Mass.). ATP, MgCl2, DTT, EDTA, MOPS and CHAPS were purchased from Sigma-Aldrich (St. Louis, Mo.). Wheat Germ Agglutinin (WGA) YSi SPA Scintillation Beads was purchased from GE healthcare life sciences (Piscataway, N.J.).
The kinase reaction was conducted in polystyrene 384-well matrix white plate from Thermo Fisher Scientific in a final volume of 25 μL. Inhibitors were first diluted serially in DMSO and added to the plate wells before the addition of other reaction components. The final concentration of DMSO in the assay was 0.5%. The PI3K assays were carried out at room temperature in 20 mM MOPS, pH 6.7, 10 mM MgCl2, 5 mM DTT and CHAPS 0.03%. Reactions were initiated by the addition of ATP, the final reaction mixture consisted of 20 μM PIP2, 20 μM ATP, 0.2 μCi [γ-^33P] ATP, 4 nM PI3Kδ. Reactions were incubated for 210 minutes and terminated by the addition of 40 μL SPA beads suspended in quench buffer: 150 mM potassium phosphate pH 8.0, 20% glycerol. 25 mM EDTA, 400 μM ATP. The final concentration of SPA beads is 1.0 mg/mL. After the plate sealing, plates were shaken overnight at room temperature and centrifuged at 1800 rpm for 10 minutes, the radioactivity of the product was determined by scintillation counting on Topcount (Perkin-Elmer). IC50 determination was performed by fitting the curve of percent control activity versus the log of the inhibitor concentration using the GraphPad Prism 3.0 software.
For orientation: In a scintillation proximity assay essentially only radioactivity close to the scintillant gives light.

Assay [1] deals with Pfeiffer cell line (diffuse large B cell lymphoma). The experiment in a line: Pfeiffer cell proliferation assay. It is filed as cell-based. The settings on record: Homo sapiens, [3H]-thymidine incorporation after 3-4 days plus 12 hours. Here is the method: Pfeiffer Cell Proliferation Assay
Pfeiffer cell line (diffuse large B cell lymphoma) was purchased from ATCC (Manassas, Va.) and maintained in the culture medium recommended (RPMI and 10% FBS). To measure the anti-proliferation activity of the compounds, the Pfeiffer cells were plated with the culture medium (2×10^3 cells/well/per 200 μl) into 96-well ultra-low binding plates (Corning, Corning, N.Y.), in the presence or absence of a concentration range of test compounds. After 3-4 days, [^3H]-thymidine (1 μCi/well) (PerkinElmer, Boston, Mass.) in PBS was then added to the cell culture for an additional 12 hours before the incorporated radioactivity was separated by filtration with water through GF/B filters (Packard Bioscience, Meridenj, Conn.) and measured by liquid scintillation counting with a TopCount (Packard Bioscience).
A general note: Incorporation of labelled thymidine or its analogues reports DNA synthesis.

SMILES strings stand for the structures. Structures can show the parent of a compound that is named as a salt.

T1 sequence (O00329 whole entry): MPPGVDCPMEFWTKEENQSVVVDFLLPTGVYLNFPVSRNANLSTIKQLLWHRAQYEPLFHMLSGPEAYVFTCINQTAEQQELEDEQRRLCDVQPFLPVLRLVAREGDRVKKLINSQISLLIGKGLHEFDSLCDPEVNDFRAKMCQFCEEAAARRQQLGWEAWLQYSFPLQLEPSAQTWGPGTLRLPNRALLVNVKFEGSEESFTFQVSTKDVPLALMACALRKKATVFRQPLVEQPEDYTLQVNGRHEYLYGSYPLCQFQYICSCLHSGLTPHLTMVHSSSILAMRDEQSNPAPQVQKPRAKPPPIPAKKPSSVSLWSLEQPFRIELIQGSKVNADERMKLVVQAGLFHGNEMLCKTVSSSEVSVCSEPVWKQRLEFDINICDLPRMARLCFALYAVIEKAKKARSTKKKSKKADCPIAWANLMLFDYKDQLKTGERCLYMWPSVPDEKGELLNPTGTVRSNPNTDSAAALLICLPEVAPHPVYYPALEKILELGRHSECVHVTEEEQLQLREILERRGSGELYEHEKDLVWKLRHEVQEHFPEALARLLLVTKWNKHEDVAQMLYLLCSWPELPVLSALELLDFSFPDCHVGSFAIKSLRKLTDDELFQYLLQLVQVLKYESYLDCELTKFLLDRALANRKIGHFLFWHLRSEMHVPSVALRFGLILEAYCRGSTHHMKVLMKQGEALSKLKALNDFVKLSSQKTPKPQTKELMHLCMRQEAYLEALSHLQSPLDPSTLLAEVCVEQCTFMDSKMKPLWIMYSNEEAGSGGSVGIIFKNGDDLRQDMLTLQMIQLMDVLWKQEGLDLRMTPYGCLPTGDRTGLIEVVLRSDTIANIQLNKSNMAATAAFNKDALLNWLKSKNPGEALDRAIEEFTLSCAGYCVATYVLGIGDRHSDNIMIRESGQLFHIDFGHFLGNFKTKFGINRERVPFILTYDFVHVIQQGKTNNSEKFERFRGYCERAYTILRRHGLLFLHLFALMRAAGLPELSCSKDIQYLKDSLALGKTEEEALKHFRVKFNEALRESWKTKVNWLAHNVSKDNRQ
T1 sequence (P27986 whole entry partner): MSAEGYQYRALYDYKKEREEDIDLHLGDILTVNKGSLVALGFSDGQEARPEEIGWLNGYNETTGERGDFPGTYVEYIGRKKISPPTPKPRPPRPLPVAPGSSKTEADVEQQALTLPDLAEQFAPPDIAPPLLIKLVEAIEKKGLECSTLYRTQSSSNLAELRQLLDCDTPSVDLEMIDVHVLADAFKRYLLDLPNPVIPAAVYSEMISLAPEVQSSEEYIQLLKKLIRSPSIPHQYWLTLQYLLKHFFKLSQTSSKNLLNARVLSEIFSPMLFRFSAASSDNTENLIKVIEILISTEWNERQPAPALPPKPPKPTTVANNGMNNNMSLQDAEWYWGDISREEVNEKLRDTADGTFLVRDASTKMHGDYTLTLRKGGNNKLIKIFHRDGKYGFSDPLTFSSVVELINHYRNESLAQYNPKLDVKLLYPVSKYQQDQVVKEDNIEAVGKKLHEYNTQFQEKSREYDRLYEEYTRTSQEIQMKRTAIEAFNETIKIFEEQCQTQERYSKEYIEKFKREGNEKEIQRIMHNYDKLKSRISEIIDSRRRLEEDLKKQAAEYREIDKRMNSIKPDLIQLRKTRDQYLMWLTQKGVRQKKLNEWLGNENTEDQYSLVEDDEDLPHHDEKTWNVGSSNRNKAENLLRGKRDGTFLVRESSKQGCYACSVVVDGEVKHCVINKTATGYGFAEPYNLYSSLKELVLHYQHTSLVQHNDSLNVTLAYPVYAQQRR

In the case of `CC(Nc1ncnc2[nH]cnc12)c1cc(Cl)c2cncn2c1N1CCN(C2CCC2)CC1` (stereo not shown) [Example 15, N-{1-[8-Chloro-5-(4-cyclobutylpiperazin-1-yl)imidazo[1,5-a]pyridin-6-yl]ethyl}-9H-purin-6-amine], the IC50 on PI3Kδ (p110δ/p85α) was 50 to 200 nM; in assay [1] it was not above 100 nM.

For `CC(Nc1ncnc2[nH]cnc12)c1cc(F)c2cncn2c1-c1cccc(F)c1` (stereo not shown) [Example 29, N-{1-[8-Fluoro-5-(3-fluorophenyl)imidazo[1,5-a]pyridin-6-yl]ethyl}-9H-purin-6-amine], the IC50 is less than 50 nM on PI3Kδ (p110δ/p85α) and 500 to 1000 nM in assay [1].

`CC(Nc1ncnc2[nH]cnc12)c1cc(Cl)c2nccn2c1-c1cccc(F)c1` (stereo not shown) [Example 3, N-{1-[8-Chloro-5-(3-fluorophenyl)imidazo[1,2-a]pyridin-6-yl]ethyl}-9H-purin-6-amine]: the IC50 lay in the range of 200 to 750 nM at PI3Kδ (p110δ/p85α) and 1000 to 3000 nM in assay [1].

Regarding `CC(Nc1ncnc2[nH]cnc12)c1cc(Cl)c2cncn2c1N1CCN(CC#N)CC1` (stereo not shown) [Example 13, (4-{8-Chloro-6-[1-(9H-purin-6-ylamino)ethyl]imidazo[1,5-a]pyridin-5-yl}piperazin-1-yl)acetonitrile], the IC50 against PI3Kδ (p110δ/p85α) lay within 50 to 200 nM; in assay [1] it was 500 to 1000 nM.

As to `CC(Nc1ncnc2[nH]cnc12)c1cc(Cl)c2cncn2c1N1CCN(C(=O)c2cnn(C)c2)CC1` (stereo not shown) [Example 11, N-[1-(8-Chloro-5-{4-[(1-methyl-1H-pyrazol-4-yl)carbonyl]piperazin-1-yl}imidazo[1,5-a]pyridin-6-yl)ethyl]-9H-purin-6-amine], the IC50 against PI3Kδ (p110δ/p85α) was less than 50 nM; in assay [1], more than 3000 nM.

For `CC(Nc1ncnc2[nH]cnc12)c1cc(Cl)c2cncn2c1N1CCNCC1` (stereo not shown) [Example 9, N-[1-(8-Chloro-5-piperazin-1-ylimidazo[1,5-a]pyridin-6-yl)ethyl]-9H-purin-6-amine dihydrochloride], the IC50 against PI3Kδ (p110δ/p85α) was less than 50 nM; in assay [1], not above 100 nM.

`CC(Nc1ncnc2[nH]cnc12)c1cc(Cl)c2cncn2c1N1CCN(C(=O)C2CC2)CC1` (stereo not shown) [Example 7, N-(1-{8-Chloro-5-[4-(cyclopropylcarbonyl)piperazin-1-yl]imidazo[1,5-a]pyridin-6-yl}ethyl)-9H-purin-6-amine]: the values for the IC50 (on PI3Kδ (p110δ/p85α); in assay [1]) were less than 50 nM and 100 to 500 nM, respectively.

`CC(=O)N1CCN(c2c(C(C)Nc3ncnc4[nH]cnc34)cc(C#N)c3cncn23)CC1` (stereo not shown) [Example 31, 5-(4-Acetylpiperazin-1-yl)-6-[1-(9H-purin-6-ylamino)ethyl]imidazo[1,5-a]pyridine-8-carbonitrile bis(trifluoroacetate)]: the values for the IC50 (against PI3Kδ (p110δ/p85α); in assay [1]) were 200 to 750 nM and more than 3000 nM, respectively.

What is called IC50 is the concentration that gives 50% inhibition.
